Data from patent publication US20250304596A1, “PYRAZINE DERIVATIVES AND USES THEREOF” (FOGHORN THERAPEUTICS INC., priority 2022, published 2025).

How the values were obtained:
HiBit-BRM fusion protein = target: T1, HiBit-BRM fusion protein (Homo sapiens, UniProt P51531); assay: HiBiT-BRM cell-based degradation assay (Nano-Glo HiBiT Lytic Detection, 24 h); conditions: stable HeLa cell line expressing HiBiT-BRM; for DC50: read-out: BRM HiBit Degradation IC50
T1 construct: expressed in transfected cells
T1 sequence (P51531 whole entry, the tested form may be a part): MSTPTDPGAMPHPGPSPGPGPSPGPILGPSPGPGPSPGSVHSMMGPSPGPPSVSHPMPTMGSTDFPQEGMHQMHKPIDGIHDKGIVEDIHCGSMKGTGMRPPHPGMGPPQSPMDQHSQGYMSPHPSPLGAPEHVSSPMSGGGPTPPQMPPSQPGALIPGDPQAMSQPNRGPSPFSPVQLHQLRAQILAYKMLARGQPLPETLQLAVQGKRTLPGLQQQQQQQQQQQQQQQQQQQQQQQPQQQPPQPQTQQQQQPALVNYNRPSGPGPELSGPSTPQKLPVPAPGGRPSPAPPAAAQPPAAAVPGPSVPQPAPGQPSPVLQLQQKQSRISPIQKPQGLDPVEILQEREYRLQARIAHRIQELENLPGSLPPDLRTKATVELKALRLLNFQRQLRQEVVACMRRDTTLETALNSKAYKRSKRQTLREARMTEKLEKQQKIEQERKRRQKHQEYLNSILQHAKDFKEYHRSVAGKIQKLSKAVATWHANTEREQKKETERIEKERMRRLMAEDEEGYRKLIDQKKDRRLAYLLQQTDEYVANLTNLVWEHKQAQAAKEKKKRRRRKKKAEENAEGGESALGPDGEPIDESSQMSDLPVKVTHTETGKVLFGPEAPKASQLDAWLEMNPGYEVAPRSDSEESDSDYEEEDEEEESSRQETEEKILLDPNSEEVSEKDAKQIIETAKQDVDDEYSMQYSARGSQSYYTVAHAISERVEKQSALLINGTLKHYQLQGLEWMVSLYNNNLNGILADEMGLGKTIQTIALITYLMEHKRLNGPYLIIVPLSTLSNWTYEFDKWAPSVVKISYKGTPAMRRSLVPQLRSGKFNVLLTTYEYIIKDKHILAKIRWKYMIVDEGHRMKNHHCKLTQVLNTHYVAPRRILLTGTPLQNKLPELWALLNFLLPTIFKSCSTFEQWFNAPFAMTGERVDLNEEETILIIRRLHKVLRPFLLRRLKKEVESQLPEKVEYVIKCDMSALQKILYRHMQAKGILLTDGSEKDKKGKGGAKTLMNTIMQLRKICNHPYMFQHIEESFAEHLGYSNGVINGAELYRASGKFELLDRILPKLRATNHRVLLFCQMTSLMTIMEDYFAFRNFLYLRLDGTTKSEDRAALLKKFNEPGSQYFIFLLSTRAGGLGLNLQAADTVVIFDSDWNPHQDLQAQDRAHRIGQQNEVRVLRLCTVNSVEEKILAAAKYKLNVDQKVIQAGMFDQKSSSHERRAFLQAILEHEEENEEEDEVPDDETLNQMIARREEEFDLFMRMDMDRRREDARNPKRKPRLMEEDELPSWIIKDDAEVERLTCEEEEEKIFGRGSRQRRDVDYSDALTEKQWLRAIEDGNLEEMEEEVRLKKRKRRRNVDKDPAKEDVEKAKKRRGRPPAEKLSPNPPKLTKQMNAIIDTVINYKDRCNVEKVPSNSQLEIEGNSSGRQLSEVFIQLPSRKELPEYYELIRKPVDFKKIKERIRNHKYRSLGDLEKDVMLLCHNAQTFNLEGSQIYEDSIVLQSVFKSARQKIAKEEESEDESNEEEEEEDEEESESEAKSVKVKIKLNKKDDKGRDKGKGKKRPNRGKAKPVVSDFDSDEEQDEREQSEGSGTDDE
Outline: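 A stable HeLa line expressing HiBiT-BRM was treated for 24 h with compound in a 10-point, 3-fold series (30 μM final top dose). Remaining HiBiT-BRM was read by lytic LgBiT complementation luminescence. % degradation was normalised to DMSO (high control) and 2 μM reference BRM/BRG1 degrader (low control).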

[1] = target: T2, HiBit-BRG1 fusion protein (Homo sapiens, UniProt P51532); assay: HiBiT-BRG1 cell-based degradation assay (Nano-Glo HiBiT Lytic Detection, 24 h); conditions: stable HeLa cell line expressing HiBit-BRG1 and LgBit; for Dmax: read-out: BRG1 HiBit Degradation Maximum (%); for DC50: read-out: BRMG1 HiBit Degradation IC50
T2 construct: expressed in transfected cells
T2 sequence (P51532 whole entry, the tested form may be a part): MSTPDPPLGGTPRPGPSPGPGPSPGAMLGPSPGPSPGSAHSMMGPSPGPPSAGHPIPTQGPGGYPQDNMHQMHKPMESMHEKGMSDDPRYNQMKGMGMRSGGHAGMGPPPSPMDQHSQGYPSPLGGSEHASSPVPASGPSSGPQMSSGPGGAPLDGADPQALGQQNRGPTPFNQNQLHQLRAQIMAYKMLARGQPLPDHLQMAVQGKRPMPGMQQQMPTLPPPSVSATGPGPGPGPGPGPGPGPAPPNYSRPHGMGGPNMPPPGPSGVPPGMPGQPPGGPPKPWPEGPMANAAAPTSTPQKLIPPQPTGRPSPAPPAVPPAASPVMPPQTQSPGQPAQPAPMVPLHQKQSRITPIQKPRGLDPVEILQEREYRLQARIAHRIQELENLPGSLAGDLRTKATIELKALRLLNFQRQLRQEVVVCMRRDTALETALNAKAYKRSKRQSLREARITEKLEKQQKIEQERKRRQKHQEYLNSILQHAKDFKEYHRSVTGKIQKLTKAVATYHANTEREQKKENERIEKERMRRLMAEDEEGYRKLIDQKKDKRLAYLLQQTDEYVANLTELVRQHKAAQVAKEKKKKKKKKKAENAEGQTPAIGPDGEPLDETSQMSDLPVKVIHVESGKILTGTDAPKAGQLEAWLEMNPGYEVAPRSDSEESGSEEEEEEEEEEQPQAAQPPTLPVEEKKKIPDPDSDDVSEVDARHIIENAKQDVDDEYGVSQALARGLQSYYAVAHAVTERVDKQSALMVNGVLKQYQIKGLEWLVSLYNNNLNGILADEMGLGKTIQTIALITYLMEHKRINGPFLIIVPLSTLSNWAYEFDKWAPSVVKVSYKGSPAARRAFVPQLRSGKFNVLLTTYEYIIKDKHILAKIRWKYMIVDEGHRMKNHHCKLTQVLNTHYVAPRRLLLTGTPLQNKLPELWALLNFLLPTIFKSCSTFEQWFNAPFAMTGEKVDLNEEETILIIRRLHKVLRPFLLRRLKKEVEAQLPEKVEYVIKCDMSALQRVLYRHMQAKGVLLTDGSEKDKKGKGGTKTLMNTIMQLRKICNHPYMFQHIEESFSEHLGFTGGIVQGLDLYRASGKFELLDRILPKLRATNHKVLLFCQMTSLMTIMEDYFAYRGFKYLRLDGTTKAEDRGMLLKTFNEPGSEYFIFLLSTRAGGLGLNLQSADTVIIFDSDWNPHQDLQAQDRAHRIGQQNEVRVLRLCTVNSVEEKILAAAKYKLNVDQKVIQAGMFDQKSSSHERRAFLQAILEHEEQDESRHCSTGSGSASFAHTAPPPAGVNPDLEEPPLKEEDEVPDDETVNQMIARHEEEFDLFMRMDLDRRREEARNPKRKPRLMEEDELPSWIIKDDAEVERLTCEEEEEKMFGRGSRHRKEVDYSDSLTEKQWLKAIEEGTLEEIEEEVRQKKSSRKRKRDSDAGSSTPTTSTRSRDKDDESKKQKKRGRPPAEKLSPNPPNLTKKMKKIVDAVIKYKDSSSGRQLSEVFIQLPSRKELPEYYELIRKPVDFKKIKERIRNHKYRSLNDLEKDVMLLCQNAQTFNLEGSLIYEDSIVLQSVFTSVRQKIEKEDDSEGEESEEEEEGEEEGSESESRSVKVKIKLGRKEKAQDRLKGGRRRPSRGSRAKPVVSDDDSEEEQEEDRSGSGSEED
Outline: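 HeLa cells stably expressing HiBit-BRG1 and LgBit, treated 24 h with 3-fold dilutions (10 points, duplicate, 30 μM final top dose). Luminescence read after Nano-Glo HiBiT lytic reagent; % degradation scaled between DMSO (high) and 2 μM reference BRM/BRG1 degrader (low control).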

| DC50 (HiBit-BRM fusion protein) | Dmax [1] | DC50 [1] | Structure (SMILES) | BRM HiBit Degradation Maximum (%) (HiBit-BRM fusion protein) |
| --- | --- | --- | --- | --- |
| < 10 nM | < 50% | > 1000 nM | Cc1ncsc1-c1ccc([C@H](C)NC(=O)[C@@H]2C[C@@H](O)CN2C(=O)[C@@H](c2cc(-c3cnc(N4CC[C@@H](c5cc6cc(-c7ccccc7O)nnc6s5)C4)nc3)no2)C(C)C)cc1 (single isomer, unassigned) [Compound 5] | A (“A” indicates maximum degradation ≥75%) |
| < 10 nM | < 50% | > 1000 nM | Cc1ncsc1-c1ccc([C@H](C)NC(=O)[C@@H]2C[C@@H](O)CN2C(=O)[C@@H](c2cc(-c3cnc(N4CC5(CC(c6sc7nnc(-c8ccccc8O)cc7c6C)C5)C4)nc3)no2)C(C)C)cc1 [Compound 46, (2S,4R)-4-hydroxy-1-((R)-2-(3-(2-(6-(3-(2-hydroxyphenyl)-5-methylthieno[2,3-c]pyridazin-6-yl)-2-azaspiro[3.3]heptan-2-yl)pyrimidin-5-yl)isoxazol-5-yl)-3-methylbutanoyl)-N-((S)-1-(4-(4-methylthiazol-5-yl)phenyl)ethyl)pyrrolidine-2-carboxamide] | A (“A” indicates maximum degradation ≥75%) |
| > 10 nM | < 50% |  | Cc1cc(N2CC[C@@H](c3sc4nnc(-c5ccccc5O)cc4c3C)C2)ncc1-c1cc([C@H](C(=O)N2C[C@H](O)C[C@H]2C(=O)N[C@@H](C)c2ccc(-c3scnc3C)cc2)C(C)C)on1 [Compound 96, (2S,4R)-4-hydroxy-1-((R)-2-(3-(6-((R)-3-(3-(2-hydroxyphenyl)-5-methylthieno[2,3-c]pyridazin-6-yl)pyrrolidin-1-yl)-4-methylpyridin-3-yl)isoxazol-5-yl)-3-methylbutanoyl)-N-((S)-1-(4-(4-methylthiazol-5-yl)phenyl)ethyl)pyrrolidine-2-carboxamide] | B (“B” indicates maximum degradation ≥50%) |
| < 10 nM | > 75% | > 10 nM | Cc1ncsc1-c1ccc([C@H](C)NC(=O)[C@@H]2C[C@@H](O)CN2C(=O)[C@@H](c2cc(N3CC4(CCC(c5cc6cc(-c7ccccc7O)nnc6s5)CC4)C3)no2)C(C)C)cc1 [Compound 89, (2S,4R)-4-hydroxy-1-((R)-2-(3-(7-(3-(2-hydroxyphenyl)thieno[2,3-c]pyridazin-6-yl)-2-azaspiro[3.5]nonan-2-yl)isoxazol-5-yl)-3-methylbutanoyl)-N-((S)-1-(4-(4-methylthiazol-5-yl)phenyl)ethyl)pyrrolidine-2-carboxamide] | A (“A” indicates maximum degradation ≥75%) |
| > 10 nM | < 50% | > 1000 nM | Cc1ncsc1-c1ccc([C@H](C)NC(=O)[C@@H]2C[C@@H](O)CN2C(=O)[C@@H](c2cc(-c3cnc(N4CC[C@@H](c5sc6nnc(-c7ccccc7O)cc6c5C)[C@H](C)C4)nc3)no2)C(C)C)cc1 [Compound 25, (2S,4R)-4-hydroxy-1-((R)-2-(3-(2-((3S,4R)-4-(3-(2-hydroxyphenyl)-5-methylthieno[2,3-c]pyridazin-6-yl)-3-methylpiperidin-1-yl)pyrimidin-5-yl)isoxazol-5-yl)-3-methylbutanoyl)-N-((S)-1-(4-(4-methylthiazol-5-yl)phenyl)ethyl)pyrrolidine-2-carboxamide] | A (“A” indicates maximum degradation ≥75%) |
| > 100 nM | < 50% |  | Cc1ncsc1-c1ccc([C@H](C)NC(=O)[C@@H]2C[C@@H](O)CN2C(=O)[C@@H](c2cc(-c3ccnc(N4CC[C@H](c5cc6nnc(-c7ccccc7O)cc6s5)C4)n3)no2)C(C)C)cc1 [Compound 86, (2S,4R)-4-hydroxy-1-((R)-2-(3-(2-((S)-3-(3-(2-hydroxyphenyl)thieno[3,2-c]pyridazin-6-yl)pyrrolidin-1-yl)pyrimidin-4-yl)isoxazol-5-yl)-3-methylbutanoyl)-N-((S)-1-(4-(4-methylthiazol-5-yl)phenyl)ethyl)pyrrolidine-2-carboxamide] | A (“A” indicates maximum degradation ≥75%) |
| < 10 nM | < 50% | > 1000 nM | Cc1ncsc1-c1ccc([C@H](C)NC(=O)[C@@H]2C[C@@H](O)CN2C(=O)[C@@H](c2cc(-c3cnc(N4CCC(c5sc6nnc(-c7ccccc7O)cc6c5C)[C@@H](C)C4)nc3)no2)C(C)C)cc1 (stereo in doubt) [Compound 35, (2S,4R)-4-hydroxy-1-((R)-2-(3-(2-((3R,4R)-4-(3-(2-hydroxyphenyl)-5-methylthieno[2,3-c]pyridazin-6-yl)-3-methylpiperidin-1-yl)pyrimidin-5-yl)isoxazol-5-yl)-3-methylbutanoyl)-N-((S)-1-(4-(4-methylthiazol-5-yl)phenyl)ethyl)pyrrolidine-2-carboxamide] | A (“A” indicates maximum degradation ≥75%) |
| > 10 nM | < 50% | > 1000 nM | Cc1ncsc1-c1ccc([C@H](C)NC(=O)[C@@H]2C[C@@H](O)CN2C(=O)[C@@H](c2cc(N3CCN(c4ncc(-c5sc6nnc(-c7ccccc7O)cc6c5C)cn4)CC3)no2)C(C)C)cc1 (single isomer, unassigned) [Compound 31] | B (“B” indicates maximum degradation ≥50%) |

The next lines start with the molecule.

| Structure (SMILES) | DC50 (HiBit-BRM fusion protein) | Dmax [1] | DC50 [1] | BRM HiBit Degradation Maximum (%) (HiBit-BRM fusion protein) |
| --- | --- | --- | --- | --- |
| Cc1ncsc1-c1ccc([C@H](C)NC(=O)[C@@H]2C[C@@H](O)CN2C(=O)C(c2cc(N3CC4(C3)CN(c3cc5nnc(-c6ccccc6O)cc5s3)C4)no2)C(C)C)cc1 (stereo partly drawn) [Compound 67, (2S,4R)-4-hydroxy-1-(2-(3-(6-(3-(2-hydroxyphenyl)thieno[3,2-c]pyridazin-6-yl)-2,6-diazaspiro[3.3]heptan-2-yl)isoxazol-5-yl)-3-methylbutanoyl)-N-((S)-1-(4-(4-methylthiazol-5-yl)phenyl)ethyl)pyrrolidine-2-carboxamide] | < 10 nM | < 50% |  | A (“A” indicates maximum degradation ≥75%) |
| Cc1ncsc1-c1ccc([C@H](C)NC(=O)[C@@H]2C[C@@H](O)CN2C(=O)[C@@H](c2cc(-c3c(C)nc(N4CCC(c5sc6nnc(-c7ccccc7O)cc6c5C)CC4)nc3C)no2)C(C)C)cc1 [Compound 11, (2S,4R)-4-hydroxy-1-((R)-2-(3-(2-(4-(3-(2-hydroxyphenyl)-5-methylthieno[2,3-c]pyridazin-6-yl)piperidin-1-yl)-4,6-dimethylpyrimidin-5-yl)isoxazol-5-yl)-3-methylbutanoyl)-N-((S)-1-(4-(4-methylthiazol-5-yl)phenyl)ethyl)pyrrolidine-2-carboxamide] | < 10 nM | > 50% | > 10 nM | A (“A” indicates maximum degradation ≥75%) |
| Cc1nc(N2CCC(c3sc4nnc(-c5ccccc5O)cc4c3C)CC2)ccc1-c1noc([C@H](C(=O)N2C[C@H](O)C[C@H]2C(=O)N[C@@H](C)c2ccc(-c3scnc3C)cc2)C(C)C)c1C [Compound 92, (2S,4R)-4-hydroxy-1-((R)-2-(3-(6-(4-(3-(2-hydroxyphenyl)-5-methylthieno[2,3-c]pyridazin-6-yl)piperidin-1-yl)-2-methylpyridin-3-yl)-4-methylisoxazol-5-yl)-3-methylbutanoyl)-N-((S)-1-(4-(4-methylthiazol-5-yl)phenyl)ethyl)pyrrolidine-2-carboxamide] | < 10 nM | > 75% | > 10 nM | A (“A” indicates maximum degradation ≥75%) |
| Cc1ncsc1-c1ccc([C@H](C)NC(=O)[C@@H]2C[C@@H](O)CN2C(=O)[C@@H](c2cc(-c3cnc(NC45CC(c6sc7nnc(-c8ccccc8O)cc7c6C)(C4)C5)nc3)no2)C(C)C)cc1 [Compound 44, (2S,4R)-4-hydroxy-1-((R)-2-(3-(2-((3-(3-(2-hydroxyphenyl)-5-methylthieno[2,3-c]pyridazin-6-yl)bicyclo[1.1.1]pentan-1-yl)amino)pyrimidin-5-yl)isoxazol-5-yl)-3-methylbutanoyl)-N-((S)-1-(4-(4-methylthiazol-5-yl)phenyl)ethyl)pyrrolidine-2-carboxamide] | < 10 nM | > 75% |  | A (“A” indicates maximum degradation ≥75%) |
| Cc1ncsc1-c1ccc([C@H](C)NC(=O)[C@@H]2C[C@@H](O)CN2C(=O)[C@@H](c2cc(N3CCC4(CC[C@@H](c5sc6nnc(-c7ccccc7O)cc6c5C)C4)CC3)no2)C(C)C)cc1 [Compound 77, (2S,4R)-4-hydroxy-1-((R)-2-(3-((R)-2-(3-(2-hydroxyphenyl)-5-methylthieno[2,3-c]pyridazin-6-yl)-8-azaspiro[4.5]decan-8-yl)isoxazol-5-yl)-3-methylbutanoyl)-N-((S)-1-(4-(4-methylthiazol-5-yl)phenyl)ethyl)pyrrolidine-2-carboxamide] | < 10 nM | > 50% | > 100 nM | A (“A” indicates maximum degradation ≥75%) |
| Cc1ncsc1-c1ccc([C@H](C)NC(=O)[C@@H]2C[C@@H](O)CN2C(=O)[C@@H](c2cc(N3CC4(C3)CN(c3sc5nnc(-c6ccccc6O)cc5c3C3CC3)C4)no2)C(C)C)cc1 [Compound 71, (2S,4R)-1-((R)-2-(3-(6-(5-cyclopropyl-3-(2-hydroxyphenyl)thieno[2,3-c]pyridazin-6-yl)-2,6-diazaspiro[3.3]heptan-2-yl)isoxazol-5-yl)-3-methylbutanoyl)-4-hydroxy-N—((S)-1-(4-(4-methylthiazol-5-yl)phenyl)ethyl)pyrrolidine-2-carboxamide] | < 10 nM | < 50% |  | A (“A” indicates maximum degradation ≥75%) |
